ChEMBL document CHEMBL3046561, “Feeding deterrents from Dictamnus dasycarpus Turcz against two stored-product insects” (J Agric Food Chem, 2002)

Columns and labels:
Tribolium castaneum [1] = test: Antifeedant activity against larvae of Tribolium castaneum (red flour beetle) assessed as mortality at 10 ppm after 3 days relative to control; format: functional; conditions: 72 h
Sitophilus zeamais [2] = test: Antifeedant activity against adult of Sitophilus zeamais assessed as efficiency of conversion of ingested food at 3 ppm after 3 days relative to control; format: functional
Tribolium castaneum [3] = test: Antifeedant activity against larvae of Tribolium castaneum (red flour beetle) assessed as efficiency of conversion of ingested food at 10 ppm after 3 days relative to control; format: functional, Instar larval stage
Tribolium castaneum [4] = test: Antifeedant activity against larvae of Tribolium castaneum (red flour beetle) assessed as feeding deterrence index at 10 ppm after 3 days relative to control; format: functional
Sitophilus zeamais [5] = test: Antifeedant activity against adult of Sitophilus zeamais assessed as relative consumption rate at 3 ppm after 3 days relative to control; format: functional
Tribolium castaneum [6] = test: Antifeedant activity against larvae of Tribolium castaneum (red flour beetle) assessed as efficiency of conversion of ingested food at 3 ppm after 3 days relative to control; format: functional
Tribolium castaneum [7] = test: Antifeedant activity against adult of Tribolium castaneum (red flour beetle) assessed as efficiency of conversion of ingested food at 10 ppm after 3 days relative to control; format: functional
Tribolium castaneum [8] = test: Antifeedant activity against larvae of Tribolium castaneum (red flour beetle) assessed as relative growth rate at 3 ppm after 3 days relative to control; format: functional
Sitophilus zeamais [9] = test: Antifeedant activity against adult of Sitophilus zeamais assessed as relative growth rate at 10 ppm after 3 days relative to control; format: functional
Tribolium castaneum [10] = test: Antifeedant activity against adult of Tribolium castaneum (red flour beetle) assessed as mortality at 10 ppm after 3 days relative to control; format: functional; conditions: 72 h
Sitophilus zeamais [11] = test: Antifeedant activity against adult of Sitophilus zeamais assessed as efficiency of conversion of ingested food at 100 ppm after 3 days relative to control; format: functional
Tribolium castaneum [12] = test: Antifeedant activity against larvae of Tribolium castaneum (red flour beetle) assessed as relative growth rate at 10 ppm after 3 days relative to control; format: functional
Sitophilus zeamais [13] = test: Antifeedant activity against adult of Sitophilus zeamais assessed as relative growth rate at 30 ppm after 3 days relative to control; format: functional
Tribolium castaneum [14] = test: Antifeedant activity against larvae of Tribolium castaneum (red flour beetle) assessed as relative consumption rate at 100 ppm after 3 days relative to control; format: functional
Tribolium castaneum [15] = test: Antifeedant activity against adult of Tribolium castaneum (red flour beetle) assessed as mortality at 100 ppm after 3 days relative to control; format: functional; conditions: 72 h
Tribolium castaneum [16] = test: Antifeedant activity against adult of Tribolium castaneum (red flour beetle) assessed as relative consumption rate at 30 ppm after 3 days relative to control; format: functional
Tribolium castaneum [17] = test: Antifeedant activity against larvae of Tribolium castaneum (red flour beetle) assessed as feeding deterrence index at 3 ppm after 3 days relative to control; format: functional
Tribolium castaneum [18] = test: Antifeedant activity against larvae of Tribolium castaneum (red flour beetle) assessed as feeding deterrence index at 100 ppm after 3 days relative to control; format: functional
Tribolium castaneum [19] = test: Antifeedant activity against adult of Tribolium castaneum (red flour beetle) assessed as efficiency of conversion of ingested food at 100 ppm after 3 days relative to control; format: functional
Sitophilus zeamais [20] = test: Antifeedant activity against adult of Sitophilus zeamais assessed as relative consumption rate at 100 ppm after 3 days relative to control; format: functional
Tribolium castaneum [21] = test: Antifeedant activity against adult of Tribolium castaneum (red flour beetle) assessed as mortality at 30 ppm after 3 days relative to control; format: functional; conditions: 72 h
Tribolium castaneum [22] = test: Antifeedant activity against adult of Tribolium castaneum (red flour beetle) assessed as mortality at 3 ppm after 3 days relative to control; format: functional; conditions: 72 h
Tribolium castaneum [23] = test: Antifeedant activity against larvae of Tribolium castaneum (red flour beetle) assessed as feeding deterrence index at 300 ppm after 3 days relative to control; format: functional
Tribolium castaneum [24] = test: Antifeedant activity against adult of Tribolium castaneum (red flour beetle) assessed as efficiency of conversion of ingested food at 3 ppm after 3 days relative to control; format: functional
Sitophilus zeamais [25] = test: Antifeedant activity against adult of Sitophilus zeamais assessed as relative consumption rate at 30 ppm after 3 days relative to control; format: functional
Tribolium castaneum [26] = test: Antifeedant activity against larvae of Tribolium castaneum (red flour beetle) assessed as relative growth rate at 300 ppm after 3 days relative to control; format: functional
Tribolium castaneum [27] = test: Antifeedant activity against adult of Tribolium castaneum (red flour beetle) assessed as relative growth rate at 10 ppm after 3 days relative to control; format: functional
Sitophilus zeamais [28] = test: Antifeedant activity against adult of Sitophilus zeamais assessed as feeding deterrence index at 30 ppm after 3 days relative to control; format: functional
Tribolium castaneum [29] = test: Antifeedant activity against larvae of Tribolium castaneum (red flour beetle) assessed as relative growth rate at 30 ppm after 3 days relative to control; format: functional
Sitophilus zeamais [30] = test: Antifeedant activity against adult of Sitophilus zeamais assessed as mortality at 10 ppm after 3 days relative to control; format: functional; conditions: 72 h
Tribolium castaneum [31] = test: Antifeedant activity against adult of Tribolium castaneum (red flour beetle) assessed as feeding deterrence index at 10 ppm after 3 days relative to control; format: functional
Sitophilus zeamais [32] = test: Antifeedant activity against adult of Sitophilus zeamais assessed as feeding deterrence index at 3 ppm after 3 days relative to control; format: functional
Tribolium castaneum [33] = test: Antifeedant activity against larvae of Tribolium castaneum (red flour beetle) assessed as mortality at 300 ppm after 3 days relative to control; format: functional; conditions: 72 h
Sitophilus zeamais [34] = test: Antifeedant activity against adult of Sitophilus zeamais assessed as mortality at 300 ppm after 3 days relative to control; format: functional; conditions: 72 h
Sitophilus zeamais [35] = test: Antifeedant activity against adult of Sitophilus zeamais assessed as mortality at 3 ppm after 3 days relative to control; format: functional; conditions: 72 h
Tribolium castaneum [36] = test: Antifeedant activity against adult of Tribolium castaneum (red flour beetle) assessed as relative growth rate at 300 ppm after 3 days relative to control; format: functional
Sitophilus zeamais [37] = test: Antifeedant activity against adult of Sitophilus zeamais assessed as feeding deterrence index at 10 ppm after 3 days relative to control; format: functional
Tribolium castaneum [38] = test: Antifeedant activity against adult of Tribolium castaneum (red flour beetle) assessed as relative growth rate at 100 ppm after 3 days relative to control; format: functional
Tribolium castaneum [39] = test: Antifeedant activity against adult of Tribolium castaneum (red flour beetle) assessed as feeding deterrence index at 3 ppm after 3 days relative to control; format: functional
Tribolium castaneum [40] = test: Antifeedant activity against adult of Tribolium castaneum (red flour beetle) assessed as mortality at 300 ppm after 3 days relative to control; format: functional; conditions: 72 h
Sitophilus zeamais [41] = test: Antifeedant activity against adult of Sitophilus zeamais assessed as relative consumption rate at 300 ppm after 3 days relative to control; format: functional
Tribolium castaneum [42] = test: Antifeedant activity against larvae of Tribolium castaneum (red flour beetle) assessed as relative consumption rate at 10 ppm after 3 days relative to control; format: functional
Tribolium castaneum [43] = test: Antifeedant activity against larvae of Tribolium castaneum (red flour beetle) assessed as feeding deterrence index at 30 ppm after 3 days relative to control; format: functional
Sitophilus zeamais [44] = test: Antifeedant activity against adult of Sitophilus zeamais assessed as feeding deterrence index at 100 ppm after 3 days relative to control; format: functional
Tribolium castaneum [45] = test: Antifeedant activity against adult of Tribolium castaneum (red flour beetle) assessed as relative consumption rate at 10 ppm after 3 days relative to control; format: functional
Tribolium castaneum [46] = test: Antifeedant activity against adult of Tribolium castaneum (red flour beetle) assessed as relative consumption rate at 100 ppm after 3 days relative to control; format: functional
Sitophilus zeamais [47] = test: Antifeedant activity against adult of Sitophilus zeamais assessed as relative consumption rate at 10 ppm after 3 days relative to control; format: functional
Sitophilus zeamais [48] = test: Antifeedant activity against adult of Sitophilus zeamais assessed as mortality at 30 ppm after 3 days relative to control; format: functional; conditions: 72 h

CC1=C2C(=O)O[C@@H](c3ccoc3)[C@]2(C)CCC1 [FRAXINELLONE]
mortality at 10 ppm (Tribolium castaneum [1]): 0%
Activity (Sitophilus zeamais [2]): 11.41%
Activity (Tribolium castaneum [3]): 20.9%
FDI (Tribolium castaneum [4]): 24.45%
Activity (Sitophilus zeamais [5]): 133.85 µg/mg/day
Activity (Tribolium castaneum [6]): 22.62%
Activity (Tribolium castaneum [7]): 21.98%
Activity (Tribolium castaneum [8]): 52.62 µg/mg/day
Activity (Sitophilus zeamais [9]): 13.29 µg/mg/day
mortality at 10 ppm (Tribolium castaneum [10]): 0%
Activity (Sitophilus zeamais [11]): 9.66%
Activity (Tribolium castaneum [12]): 41.3 µg/mg/day
Activity (Sitophilus zeamais [13]): 10.06 µg/mg/day
Activity (Tribolium castaneum [14]): 127.99 µg/mg/day
mortality at 100 ppm (Tribolium castaneum [15]): 0%
Activity (Tribolium castaneum [16]): 83.91 µg/mg/day
FDI (Tribolium castaneum [17]): 11.65%
FDI (Tribolium castaneum [18]): 72.76%
Activity (Tribolium castaneum [19]): 17.57%
Activity (Sitophilus zeamais [20]): 79.29 µg/mg/day
mortality at 30 ppm (Tribolium castaneum [21]): 0%
mortality at 3 ppm (Tribolium castaneum [22]): 0%
FDI (Tribolium castaneum [23]): 95.68%
Activity (Tribolium castaneum [24]): 21.68%
Activity (Sitophilus zeamais [25]): 113.45 µg/mg/day
Activity (Tribolium castaneum [26]): -8.44 µg/mg/day
Activity (Tribolium castaneum [27]): 23.64 µg/mg/day
FDI (Sitophilus zeamais [28]): 30.76%
Activity (Tribolium castaneum [29]): 23.22 µg/mg/day
mortality at 10 ppm (Sitophilus zeamais [30]): 0%
FDI (Tribolium castaneum [31]): 18.64%
FDI (Sitophilus zeamais [32]): 2.92%
mortality at 300 ppm (Tribolium castaneum [33]): 12%
mortality at 300 ppm (Sitophilus zeamais [34]): 4%
mortality at 3 ppm (Sitophilus zeamais [35]): 0%
Activity (Tribolium castaneum [36]): 1.48 µg/mg/day
FDI (Sitophilus zeamais [37]): 15.68%
Activity (Tribolium castaneum [38]): 9.41 µg/mg/day
FDI (Tribolium castaneum [39]): 8.46%
mortality at 300 ppm (Tribolium castaneum [40]): 4%
Activity (Sitophilus zeamais [41]): 35.29 µg/mg/day
Activity (Tribolium castaneum [42]): 198.13 µg/mg/day
FDI (Tribolium castaneum [43]): 50.33%
FDI (Sitophilus zeamais [44]): 54.09%
Activity (Tribolium castaneum [45]): 120.94 µg/mg/day
Activity (Tribolium castaneum [46]): 60.43 µg/mg/day
Activity (Sitophilus zeamais [47]): 120.27 µg/mg/day
mortality at 30 ppm (Sitophilus zeamais [48]): 2%
